Results published in paper PMC11942566, “Next-Generation Analogues of AC265347 as Positive Allosteric Modulators of the Calcium-Sensing Receptor: Pharmacological Investigation of Structural Modifications at the Stereogenic Centre” (International Journal of Molecular Sciences, 2025).
Like-named read-outs stand apart in the source and are kept apart here. One block for each molecule: values may come before it.

Experiments:
[1] = target: T1, wild-type human CaSR (calcium-sensing receptor) (Homo sapiens, UniProt P41180); experiment: Ca2+i mobilisation (Fluo-8), operational model of allosteric modulation; type: cell-based; details: for Kb: read-out: pKB ± SEM (KB) (converted)
T1 construct: full-length wild-type, cmyc-tagged
T1 sequence (P41180 20-1078): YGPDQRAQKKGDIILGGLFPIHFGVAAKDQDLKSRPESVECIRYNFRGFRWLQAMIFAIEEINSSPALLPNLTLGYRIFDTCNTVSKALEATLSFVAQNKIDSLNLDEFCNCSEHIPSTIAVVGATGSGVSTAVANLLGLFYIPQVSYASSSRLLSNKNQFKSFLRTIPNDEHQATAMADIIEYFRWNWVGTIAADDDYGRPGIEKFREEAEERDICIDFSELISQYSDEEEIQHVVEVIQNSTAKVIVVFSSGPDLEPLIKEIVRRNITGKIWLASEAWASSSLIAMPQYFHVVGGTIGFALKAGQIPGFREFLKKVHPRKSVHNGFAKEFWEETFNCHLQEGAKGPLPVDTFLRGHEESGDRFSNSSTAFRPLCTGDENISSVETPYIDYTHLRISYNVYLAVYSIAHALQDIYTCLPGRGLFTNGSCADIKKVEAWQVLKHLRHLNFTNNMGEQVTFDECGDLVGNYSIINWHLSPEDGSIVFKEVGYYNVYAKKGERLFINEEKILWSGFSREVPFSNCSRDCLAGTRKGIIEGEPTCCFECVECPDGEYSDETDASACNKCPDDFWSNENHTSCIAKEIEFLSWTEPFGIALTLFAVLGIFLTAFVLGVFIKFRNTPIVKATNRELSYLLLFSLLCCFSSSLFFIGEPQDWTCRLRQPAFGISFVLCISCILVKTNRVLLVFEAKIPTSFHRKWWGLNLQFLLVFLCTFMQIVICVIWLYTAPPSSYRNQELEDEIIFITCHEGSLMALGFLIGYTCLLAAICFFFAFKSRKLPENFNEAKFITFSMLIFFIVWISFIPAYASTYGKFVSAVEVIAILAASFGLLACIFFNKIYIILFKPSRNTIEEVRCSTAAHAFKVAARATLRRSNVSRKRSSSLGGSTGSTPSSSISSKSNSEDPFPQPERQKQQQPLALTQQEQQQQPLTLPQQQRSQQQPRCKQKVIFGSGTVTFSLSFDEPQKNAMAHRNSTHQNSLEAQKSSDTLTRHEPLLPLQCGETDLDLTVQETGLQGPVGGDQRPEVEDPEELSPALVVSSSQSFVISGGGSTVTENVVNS
Excerpt: Ca2+i mobilisation (Fluo-8), operational model of allosteric modulation on wild-type human CaSR (calcium-sensing receptor)

[2] = target: T1, wild-type human CaSR (calcium-sensing receptor); experiment: Ca2+i mobilisation (Fluo-8), four-parameter sigmoidal fit with shared Hill slope; type: cell-based; details: positive allosteric modulation of Ca2+o response, pH 7.4, 37 °C; KB not determinable
[3] = functional affinity estimate (from pKB), positive allosteric modulator, allosteric site, Ca2+o as orthosteric agonist, pH 7.4, 37 °C, reanalysis of the authors' previously published data, cited from earlier work

Compound: Cc1ccc(C2(c3nc4ccccc4s3)CO2)c(C)c1 (racemic) [compound 6, 2-(2-(2,4-Dimethylphenyl)oxiran-2-yl)benzo[d]thiazole]
Kb [1]: 29 µM

Compound: Cc1ccc(C(C)(O)c2nc3ccccc3s2)c(C)c1 (racemic) [compound 1, 1-(Benzo[d]thiazol-2-yl)-1-(2,4-dimethylphenyl)ethan-1-ol]
Kb [1, 3]: 3.4 µM

Compound: Cc1ccc(C(O)(c2nc3ccccc3s2)C(F)(F)F)c(C)c1 (racemic) [compound 5, 5]
Kb [1, 3]: 5 µM

Compound: Cc1ccc(C2(c3nc4ccccc4s3)CCO2)c(C)c1 (racemic) [compound 7, 2-(2-(2,4-Dimethylphenyl)oxetan-2-yl)benzo[d]thiazole]
pKB ± SEM (KB, μM) ([1]; functional affinity estimate (from pKB), positive allosteric modulator, allosteric site, Ca2+o as orthosteric agonist, pH 7.4, 37 °C, unreliable (extrapolated beyond highest tested concentration 30 μM)): 123 μM

Further lines, results first:

Kb [1]: 10 µM
Compound: Cc1ccc(C(C)(F)c2nc3ccccc3s2)c(C)c1 (racemic) [compound 9, 2-(1-(2,4-Dimethylphenyl)-1-fluoroethyl)benzo[d]thiazole]

Kb [1]: 8.1 µM
Compound: C=CC(O)(c1nc2ccccc2s1)c1ccc(C)cc1C (racemic) [7b, 1-(Benzo[d]thiazol-2-yl)-1-(2,4-dimethylphenyl)prop-2-en-1-ol]

fold increase in Ca2+o potency (pEC50) at 10 μM [2]: 1.8 fold
Compound: COC(C)(c1nc2ccccc2s1)c1ccc(C)cc1C (racemic) [compound 8, 2-(1-(2,4-Dimethylphenyl)-1-methoxyethyl)benzo[d]thiazole]
